Common to all, as to type: cell-based, human
Assay [1] relates to MCF7 cell lines (clones) in which the ERE-GFP reporter gene having a sable GFP as the reporter was stably introduced. As to the kind of experiment: GFP protein induction with/without estrogen (E2), stable-GFP reporter clones. As to conditions: E2 10 nM, two days.
The test system of assay [2] is cell line in which only the pd2EGFP-1 vector having no ERE was stably introduced (pdE2-GFP-4). Description: Estrogen signal response assessment (GFP expression), control cell line without ERE. The note with it: E2 10 nM, two days; regardless of E2-treated/untreated.
In assay [3] the test system is ERE-GFP-E10 cell line. As to the kind of experiment: GFP expressing cell counting after addition of E2.
The test system of assay [4] is ERE-GFP-E10 cell line. As to the kind of experiment: MTT assay for living cell counts after addition of E2. The note with it: E2 0 to 300 pM; four days; absorbance at 560 nm. A general note: Tetrazolium assays rely on reduction of a dye to a coloured formazan, in cell work by metabolically active cells.
Assay [5] relates to ERE-GFP-E10 cell line. As to the kind of experiment: Estrogen signal response assessment (GFP expression, fluorescence microscope / flow cytometer). As to conditions: E2 10 nM, two days; compared with E2-untreated (low GFP expression level). (Flow cytometry measures light scatter and fluorescence of single cells or particles in a stream.)
The subject of assay [6] is breast cancer tissue-derived adipose stromal cell and ERE-GFP-E10 cell. Description: Co-culture of breast cancer tissue-derived adipose stromal cell and ERE-GFP-E10, detection of estrogen signal. Also on record: dose or concentration left out as unconfirmed. The note with it: testosterone, four days co-culture; compared with no addition of androgen; three breast cancer cases.

Setting [7] is: E2 3 pM or 1 nM, Day 1 to Day 4, regardless of the amount of E2 added.

Turning to `C[C@]12CC[C@@H]3c4ccc(O)cc4CC[C@H]3[C@@H]1CC[C@@H]2O` [E2, 17 β estradiol], the “GFP expression positive cell rate (%) E2-added group” value was 88% in assay [1] (clone #16, E2-free group 85); 73% in assay [1] (clone #19, E2-free group 32); 8% in assay [1] (clone #21, E2-free group 5); 41% in assay [1] (clone #28, E2-free group 37); 83% in assay [1] (clone #29, E2-free group 77); 84% in assay [1] (clone #37, E2-free group 83). Also, in assay [2], the GFP expression entry is “no GFP expression”. Moreover, the “E2 concentration at which GFP expression induction was maximized” value with ERE-GFP-E10 cell line [3] (E2 0, 1, 3, 10, 30, 100, 300 pM, four days) came out at 30 pM. Moreover, the “day from which GFP expression was observed after the addition of E2” value in the assay on ERE-GFP-E10 cell line [3] (setting [7]) was found to be 1 days. Further, in the assay on ERE-GFP-E10 cell line [3] (setting [7]), the “day on which GFP expression positive cell count was maximized” value came out at 2 days. Moreover, the minimal effective concentration with ERE-GFP-E10 cell line [3] (Homo sapiens, 96 h, E2 0, 1, 3, 10, 30, 100, 300 pM, four days, read-out: E2 concentration at which a significant level of GFP expression induction was detected) amounted to 3e-06 µM. Besides, the living cell count result with ERE-GFP-E10 cell line [4] was “increased dependently on the added E2 concentration”. Also, the “GFP expression level when E2-treated” value in the assay on ERE-GFP-E10 cell line [5] was “GFP well induced, having a high expression level”.

On to `C[C@]12CC[C@H]3[C@@H](CCC4=CC(=O)CC[C@@]43C)[C@@H]1CC[C@@H]2O` [testosterone], for which the “GFP positive cell rate in the ERE-GFP-E10 cell” value in assay [6] is “significantly increased”.

These data come from patent EP1905824A1, “A […] AND A METHOD FOR CELL […]” (Olympus Corporation, priority 2005, dated 2006).
